In patent US7622446B2, “Polypeptides, derivatives and uses thereof” (The Open University, priority 2001, dated 2009):
No end group written: not given here.

Experiments:
Assay type in all cases: in vivo, chick
chicks [1] = assay: Memory enhancement on weak training (10% methylanthranilate), passive avoidance task; details: for effect of differing doses on weak training (percent avoidance): 30 mins before training, RER 0.2, 1.0, 2.0 μg/hemisphere, Ac-RER 4.0, 6.0 μg/hemisphere
Experimental: (§1) Commercially obtained Ross Chunky eggs were incubated and hatched in brooders and held until 16±6 hours old. Chicks were placed in pairs in small aluminium pens. Following an equilibration period of an hour, the chicks were pretrained and trained essentially as described by Lossner and Rose (J. Neurochem. 41, 1357-1363 (1983), the contents of which are incorporated herein by reference). Pretraining involved three 10 s presentations of a small (2 mm diameter) white bead, at approximately 5 minute intervals. […] Two training techniques were used: “strong” and “weak” training. In both, 5 to 10 minutes after the last pre-training trial, chicks were trained by a 10 s presentation of a 4 mm diameter chrome bead, which had been dipped in the bitter-tasting methylanthranilate. Control chicks pecked at a water-coated or dry bead. In the “strong” version of the task, 100% methylanthranilate was used. In the “weak” version, 10% methylanthranilate was used. Chicks spontaneously pecked at the training or control beads within 20 s. Chicks that peck at the bitter bead evinced a disgust reaction and would not normally peck at a similar, but dry bead for some hours subsequently. At various times following training chicks were tested, by offering them a dry 4 mm diameter chrome bead, followed 10 minutes later by a small (2 mm diameter) white bead, each for 20 to 30 s. Animals were tested by an experimenter blind as to which treatment each chick had received. Chicks are considered to remember the task if they avoid the chrome bead at test but peck at the white bead (discriminate), and to have forgotten it if they peck at both beads. Recall is calculated as a percent avoidance score (percentage of chicks which avoid the chrome bead) and as a discrimination score (percentage of chicks which avoid the chrome but peck at the white bead). […] Each chick was trained and tested only once and differences between groups tested for statistical significance by g-test described by Sokal and Rohlf (Biometry: the Principles and Practice of Statistics in Biological Research (2nd edition), W H Freeman, New York (1981)), the contents of which are incorporated herein by reference. The validity of this particular training task used to assess memory formation is extensively discussed by Andrew (Neural and Behavioural Plasticity: the Use of the Domestic Chick as a Model, Oxford University Press, Oxford, UK (1991), the contents of which are incorporated herein by reference.
(§2) Thus the learning experience is not committed to long-term memory. Agents that are memory enhancers can thus be tested. A memory enhancing agent, administered to a chick trained on the weak learning task, produces an increase in retention—increased avoidance of the chrome bead—at 24 hours. That is, such memory enhancers help convert weak to strong learning by enabling the transition from shorter to longer-term memory.
(§3) Bilateral intracranial injections ([…]) of either saline, or solutions in saline of different peptides (0.5 to 5 μg/hemisphere) homologous to different regions of the external domain of human APP were injected intracerebrally into a specific brain region, known to be required for memory formation (the intermediate hyperstriatum ventrale) at different time-points pre- or post-training using a […] fitted with a plastic sleeve to allow a penetration of 3 mm. After completion of the injection, the needle was kept in place for 5 s. Correct placement was ensured by using a specially designed headholder described by Davis et al (Physiol. Behav. 22, 177-184 (1979), the contents of which are incorporated herein by reference) and was routinely visually monitored postmortem. Peptides or other substances were administered at various times either before or after the training protocol. Chicks were tested at different time points post-training as described above. […]

chicks [2] = assay: β-amyloid 12-28 induced amnesia, passive avoidance task, strong training
Experimental: as §1, §2
Bilateral intracranial injections ([…]) of either saline, or solutions in saline of different peptides (0.5 to 5 μg/hemisphere) homologous to different regions of the external domain of human APP were injected intracerebrally into a specific brain region, known to be required for memory formation (the intermediate hyperstriatum ventrale) at different time-points pre- or post-training using a […] fitted with a plastic sleeve to allow a penetration of 3 mm. After completion of the injection, the needle was kept in place for 5 s. Correct placement was ensured by using a specially designed headholder described by Davis et al (Physiol. Behav. 22, 177-184 (1979), the contents of which are incorporated herein by reference) and was routinely visually monitored postmortem. Peptides or other substances were administered at various times either before or after the training protocol. Chicks were tested at different time points post-training as described above.

chicks [3] = assay: APP-antisense induced amnesia, passive avoidance task, strong training; details: for effect on APP-antisense induced amnesia (percent avoidance): FIG. 5
Experimental: Commercially obtained Ross Chunky eggs were incubated and hatched in brooders and held until 16±6 hours old. Chicks were placed in pairs in small aluminium pens. Following an equilibration period of an hour, the chicks were pretrained and trained essentially as described by Lossner and Rose (J. Neurochem. 41, 1357-1363 (1983), the contents of which are incorporated herein by reference). Pretraining involved three 10 s presentations of a small (2 mm diameter) white bead, at approximately 5 minute intervals. […] Two training techniques were used: “strong” and “weak” training. In both, 5 to 10 minutes after the last pre-training trial, chicks were trained by a 10 s presentation of a 4 mm diameter chrome bead, which had been dipped in the bitter-tasting methylanthranilate. Control chicks pecked at a water-coated or dry bead. In the “strong” version of the task, 100% methylanthranilate was used. In the “weak” version, 10% methylanthranilate was used. Chicks spontaneously pecked at the training or control beads within 20 s. Chicks that peck at the bitter bead evinced a disgust reaction and would not normally peck at a similar, but dry bead for some hours subsequently. At various times following training chicks were tested, by offering them a dry 4 mm diameter chrome bead, followed 10 minutes later by a small (2 mm diameter) white bead, each for 20 to 30 s. Animals were tested by an experimenter blind as to which treatment each chick had received. Chicks are considered to remember the task if they avoid the chrome bead at test but peck at the white bead (discriminate), and to have forgotten it if they peck at both beads. Recall is calculated as a percent avoidance score (percentage of chicks which avoid the chrome bead) and as a discrimination score (percentage of chicks which avoid the chrome but peck at the white bead). […]
as §3, with “After completion of the injection, the needle was kept in place for 5 s.” left out, “postmortem.” for “postmortem. Peptides or other substances were administered at various times either before or after the training protocol. Chicks were tested at different time points post-training as described above.”

chicks [4] = assay: anti-APP (mb22C11) induced amnesia, passive avoidance task; details: FIG. 4; mb22C11 30 minutes pretraining, peptide 5 minutes pretraining; memory tested 24 hours posttraining
Experimental: Commercially obtained Ross Chunky eggs were incubated and hatched in brooders and held until 16±6 hours old. Chicks were placed in pairs in small aluminium pens. Following an equilibration period of an hour, the chicks were pretrained and trained essentially as described by Lossner and Rose (J. Neurochem. 41, 1357-1363 (1983), the contents of which are incorporated herein by reference). Pretraining involved three 10 s presentations of a small (2 mm diameter) white bead, at approximately 5 minute intervals. […] Two training techniques were used: “strong” and “weak” training. In both, 5 to 10 minutes after the last pre-training trial, chicks were trained by a 10 s presentation of a 4 mm diameter chrome bead, which had been dipped in the bitter-tasting methylanthranilate. Control chicks pecked at a water-coated or dry bead. In the “strong” version of the task, 100% methylanthranilate was used. In the “weak” version, 10% methylanthranilate was used. Chicks spontaneously pecked at the training or control beads within 20 s. Chicks that peck at the bitter bead evinced a disgust reaction and would not normally peck at a similar, but dry bead for some hours subsequently. […] Recall is calculated as a percent avoidance score (percentage of chicks which avoid the chrome bead) and as a discrimination score (percentage of chicks which avoid the chrome but peck at the white bead). […]

[5] = FIG. 10, 2 μg/hemisphere 20 mins prior to training after β-amyloid 12-28 (2 μg/hemisphere) 30 mins prior to training, measured 20 mins after administration
[6] = FIGS. 7-9, peptide 30 minutes pretraining, memory tested 24 hours posttraining
[7] = AS oligodeoxynucleotide 12 hours pretraining, peptide 30 minutes pretraining, strong learning task

In the case of `CC(=O)NC(CCCNC(=N)N)C(=O)NC(CCC(=O)O)C(=O)OC(CCCNC(=N)N)C(=O)O` (centres unmarked) [Ac-RER], the “effect on weak training (percent avoidance)” value (chicks [1]; FIG. 11, 2 μg/hemisphere 30 mins before training) is reported as “has the effect of improving the memory of weakly trained chicks”, the “effect on weak training (percent avoidance)” value (chicks [1]; FIG. 11, 2 μg/hemisphere 60 mins before training) is reported as “still significant, although less than 30 minutes after administration” and the “effect of differing doses on weak training (percent avoidance)” value (chicks [1]; FIG. 12) is reported as “have the effect of improving the memory of weakly-trained chicks”. For the same compound, the “dose required to obtain a comparable effect on weak training” value (chicks [1]; FIG. 12, Ac-RER compared with RER) was “higher doses of Ac-RER than of RER”, the “stability after administration (indicated by FIG. 12 results)” value (chicks [1]; FIG. 12, inferred from the doses required) was “more stable after administration than RER” and the “effect on β-amyloid 12-28 induced amnesia (percent avoidance)” value (chicks [2]; [5]) was “less than that of RER”. The “effect on β-amyloid 12-28 induced amnesia (percent avoidance)” value (chicks [2]; FIG. 10, 2 μg/hemisphere 20 mins prior to training after β-amyloid 12-28 (2 μg/hemisphere) 30 mins prior to training, measured 20 mins after administration, listed as AC-RER) was “have the effect of restoring memory”, the “stability after administration (indicated by FIG. 10 results)” value (chicks [2]; FIG. 10, inferred from memory-restorative effect compared with RER) was “more stable after administration” and the “effect on β-amyloid 12-28 induced amnesia (percent avoidance)” value (chicks [2]; FIG. 13, 4 μg/hemisphere 60, 20 or 30 mins prior to training (before, after or together with β-amyloid 12-28 2 μg/hemisphere)) was “has the effect of restoring memory”.

With AKERLEAKHRERMSQVM [APP 319-335] the “effect on APP-antisense induced amnesia (percent avoidance: total avoidance and discrimination)” value (chicks [3]; FIG. 6, AS oligodeoxynucleotide 12 hours pretraining, peptide 30 minutes pretraining, tested 30 minutes posttraining) was “can prevent antisense induced memory loss” and the “effect on weak training (percent avoidance)” value (chicks [1]; [6]) was “enhance memory at 24 hours”.

In the case of “AS oligodeoxynucleotide: 16-mer end-protected phosphodiester oligodeoxynucleotide 5′-CCC GAG GAC TGA GCC A-3′ (SEQ ID No: 21) against APP mRNA, antisense form (antisense CCCGAGGACTGAGCCA; end-protected phosphodiester DNA, nucleotides 2 and 13 modified, nature not given here) [reference compound]”, the “effect of oligodeoxynucleotide on memory (percent avoidance)” value (chicks [3]; FIG. 5a, 0.6 to 1.0 μg in 2 μl, 12 hours pretraining, strong learning task) is reported as “had a significant effect of memory loss”.

With Arg-Glu-Arg (RER) the “effect of differing doses on weak training (percent avoidance)” value (chicks [1]; FIG. 12) was “have the effect of improving the memory of weakly-trained chicks”, the “effect on weak training (percent avoidance)” value (chicks [1]; [6]) was “enhances memory at 24 hours” and the “effect on β-amyloid 12-28 induced amnesia (percent avoidance)” value (chicks [2]; [5]) was “have the effect of restoring memory”.

Arg-Glu-Arg-Met-Ser (RERMS) was tested, and the “effect on anti-APP induced amnesia (percent avoidance)” value (chicks [4]) was “will prevent antibody induced memory loss”, the “effect on APP-antisense induced amnesia (percent avoidance)” value (chicks [3]; [7]) was “avoided to a substantial extent” and the “effect on weak training (percent avoidance)” value (chicks [1]; [6]) was “enhance memory at 24 hours”. For the same compound, the “effect on β-amyloid 12-28 induced amnesia (percent avoidance)” value (chicks [2]; FIG. 3, β-amyloid 12-28 30 minutes pretraining, peptide 20 minutes pretraining, memory tested 24 hours posttraining) was “memory retention is restored”.

For “Arg-Ser-Ala-Glu-Arg (RSAER) [reference compound]”, the “effect on APP-antisense induced amnesia (percent avoidance)” value (chicks [3]; [7]) was “absent”.
